Measured values taken from paper PMC6444592, “Citrullination of HP1γ chromodomain affects association with chromatin” (Epigenetics & Chromatin, 2019).

Test system: mESCs
Experiment: live-cell single-particle tracking, 13.5 ms, jump distance analysis
Type: cell-based, mouse
Conditions: 13.5 ms
Procedure: Parental E14 mouse embryonic stem cell (mESC) line was profiled by transcriptome analysis, qPCR and potency assays and was routinely tested for mycoplasma contamination and tested negative. Cells were cultured in DMEM (Gibco) supplemented with 15% standard FCS (Gibco), 0.1 mM non-essential amino acids (Gibco), 1% penicillin/streptomycin, 2 mM L-glutamine (Gibco), 1 mM sodium pyruvate (Gibco), 0.1 mM β-mercaptoethanol (Life Technologies) and 10^6 units/l mLIF (ESGRO, Millipore). E14 cells were stored in incubators at 37 °C in 7.5% CO2 (100% humidity) and maintained in 0.1% gelatin coated 10-cm culture dishes with 1:6 passaging every 2 days. Media was changed on a daily basis. E14 ESCs expressing mouse mEos3.2–HaloTag-HP1 fusion proteins were generated by transfecting appropriate pSB7 plasmids into E14 cells using Lipofectamine 2000 transfection reagent (Invitrogen), followed by selection in 600 µg/ml geneticin (Life Technologies). After 2 weeks of geneticin selection, cells were sorted using a Sony SH800S cell sorter for the expression of mEos3.2. Differentiation of ESCs was induced by LIF withdrawal. ESCs cultured in complete ES cell media (+ LIF) were trypsinised and washed twice in 1x PBS to remove residual LIF, seeded into ES cell media without LIF and incubated for 24, 48 or 72 h.
An IX73 Olympus inverted microscope was used with circularly polarised laser beams aligned and focused at the back aperture of an Olympus 1.40 NA 100 × oil objective (Universal Plan Super Apochromat, 100 × , NA 1.40, UPLSAPO100XO/1.4). Continuous wavelength diode laser light sources used include a 561-nm (Cobolt, Jive 200, 200 mW) and a 405-nm laser (Stradus, Toptica, 405–100, 100 mW). Oblique angle illumination was achieved by aligning the laser off axis such that the emergent beam at the sample interface was near-collimated and incident at an angle slightly less than the critical angle θc ~ 67° for a glass/water interface. This generated a ~ 50 μm diameter excitation footprint. The power of the collimated beams at the back aperture of the microscope was 10 kW/cm^2 and 10–100 W/cm^2 for the 561-nm and 405-nm laser beams, respectively. The lasers were reflected by dichroic mirrors (Semrock, Di01-R405/488/561/635). The fluorescence emission was collected through the same objective and then further filtered using a combination of long-pass and band-pass filters (BLP01-561R and FF01-587/35 for 561 nm excitation). The emission signal was projected onto an EMCCD (Photometrics, Evolve 512 Delta) with an electron multiplication gain of 250 ADU/photon operating in a frame transfer mode.
mESCs expressing mEos3.2–HaloTag-tagged HP1γ were passaged 2 days before imaging onto 35-mm glass bottom dishes No 1.0 (MatTek Corporation P35G-1.0-14-C Case) in phenol red-free serum and LIF conditions, if not stated otherwise. Just before single-particle tracking (SPT) imaging experiments, cells were labelled with 0.5 nM HaloTag–JF549 ligand for at least 15 min, followed by two washes in PBS and a 30-min incubation at 37 °C in media, before imaging the cells in fresh phenol red-free serum and LIF conditions. Cells were under-labelled to prevent overlap of fluorophores during SPT. Using 561 nm excitation, fluorescence images were collected as movies of 10,000 frames at 13.5 ms or 1000 to 5000 frames at 500 ms exposure. For live-cell tracking, data were collected for three biological replicates on separate dishes and the average values compared.
Live-cell 13.5-ms single-molecule traces were analysed using software that detects single-molecule trajectories from SPT movies. Briefly, the code detected puncta positions in each image frame using a brightness-weighted centroid after applying a band-pass filter to remove low-frequency background and high-frequency noise from the image data. To track the HP1 single molecules, only fluorescent puncta smaller than 3 pixels and with a signal to noise greater than 8 were analysed. […]

## HP1γWT: full-length mouse HP1γ wild type, as GST or mEos3.2–HaloTag fusion protein
+LIF, replicate i
  Diffusion coefficient, Bound: 0.100 µm2s-1
  Diffusion coefficient, Diffusing: 0.780 µm2s-1
  Percentage, Bound: 36.7%
  Percentage, Diffusing: 63.3%
+LIF, replicate ii
  Diffusion coefficient, Bound: 0.100 µm2s-1
  Diffusion coefficient, Diffusing: 0.812 µm2s-1
  Percentage, Bound: 30%
  Percentage, Diffusing: 70%
+LIF, replicate iii
  Diffusion coefficient, Bound: 0.100 µm2s-1
  Diffusion coefficient, Diffusing: 0.784 µm2s-1
  Percentage, Bound: 32.4%
  Percentage, Diffusing: 67.6%
+LIF, replicate iv
  Diffusion coefficient, Bound: 0.097 µm2s-1
  Diffusion coefficient, Diffusing: 1.019 µm2s-1
  Percentage, Bound: 49%
  Percentage, Diffusing: 51%
+LIF, replicate v
  Diffusion coefficient, Bound: 0.089 µm2s-1
  Diffusion coefficient, Diffusing: 0.972 µm2s-1
  Percentage, Bound: 38.8%
  Percentage, Diffusing: 61.2%
+LIF, mESCs, mean ± SD (n = 5–9)
  Percentage of molecules, diffusing: 63%
−LIF 72 h versus +LIF
  diffusion rate, effect of LIF withdrawal: no significant effect
−LIF, replicate i
  Diffusion coefficient, Bound: 0.082 µm2s-1
  Diffusion coefficient, Diffusing: 0.733 µm2s-1
  Percentage, Bound: 51.4%
  Percentage, Diffusing: 48.6%
−LIF, replicate ii
  Diffusion coefficient, Bound: 0.092 µm2s-1
  Diffusion coefficient, Diffusing: 0.912 µm2s-1
  Percentage, Bound: 51%
  Percentage, Diffusing: 49%
−LIF, replicate iii
  Diffusion coefficient, Bound: 0.100 µm2s-1
  Diffusion coefficient, Diffusing: 1.037 µm2s-1
  Percentage, Bound: 31.3%
  Percentage, Diffusing: 68.7%
−LIF, replicate iv
  Diffusion coefficient, Bound: 0.100 µm2s-1
  Diffusion coefficient, Diffusing: 1.007 µm2s-1
  Percentage, Bound: 30.9%
  Percentage, Diffusing: 69.1%
−LIF, replicate v
  Diffusion coefficient, Bound: 0.100 µm2s-1
  Diffusion coefficient, Diffusing: 0.930 µm2s-1
  Percentage, Bound: 27.9%
  Percentage, Diffusing: 72.1%
